Measured values reported in ChEMBL document CHEMBL3217691, “Discovery and optimization of efficacious neutral 4-amino-6-biphenyl-7,8-dihydropyrimido[5,4-f][1,4]oxazepin-5-one diacylglycerol acyl transferase-1 (DGAT1) inhibitors” (Medchemcomm, 2013).

Assays:
physchem = conditions: buffer, pH 7.4
in vitro [1] = conditions: rat, hepatocytes
in vitro [2] = conditions: human, Caco-2
in vivo = conditions: Han Wistar, rat, iv
[3] = Oral bioavailability in Han Wistar rat at 2.3 to […]; format: ADME, organism-based; conditions: in vivo
Mus musculus = test: Volume of distribution at steady state in mouse plasma at 2 mg/kg, iv and po; format: ADME, organism-based; design: dose 2 mg/kg, route oral; conditions: in vivo
[4] = Half life in rat at 2 mg/kg, po; format: ADME, organism-based; design: dose 2 mg/kg, route oral; conditions: in vivo
[5] = Oral bioavailability in mouse at 2 mg/kg; format: ADME, organism-based; conditions: in vivo
[6] = Half life in dog at 0.5 mg/kg, iv; format: ADME, organism-based, Canis lupus familiaris; design: dose 0.5 mg/kg, route intravenous; conditions: in vivo
Canis familiaris = test: Volume of distribution at steady state in dog plasma at 0.5 mg/kg, iv and po; format: ADME, organism-based, Canis lupus familiaris; design: dose 0.5 mg/kg, route oral; conditions: in vivo
[7] = Oral bioavailability in rat at 2 mg/kg; format: ADME, organism-based; conditions: in vivo
[8] = Volume of distribution at steady state in rat plasma at 1 mg/kg, iv and 2 mg/kg, po; format: ADME, organism-based; conditions: read-out: Vdss
[9] = Clearance in rat plasma at 1 mg/kg, iv and 2 mg/kg, po; format: ADME, organism-based
[10] = Half life in mouse at 2 mg/kg, iv; format: ADME, organism-based; design: dose 2 mg/kg, route intravenous; conditions: in vivo
[11] = Half life in mouse at 2 mg/kg, po; format: ADME, organism-based; design: dose 2 mg/kg, route oral; conditions: in vivo
[12] = Oral bioavailability in dog at 0.5 mg/kg; format: ADME, organism-based, Canis lupus familiaris; conditions: in vivo
[13] = Half life in rat at 1 mg/kg, iv; format: ADME, organism-based; design: dose 1 mg/kg, route intravenous; conditions: in vivo

Row | logD (physchem) | hepatocyte CLint (in vitro [1]) [µL/min/1e6 cells] | Papp A→B (in vitro [2]) [×10⁻⁶ cm/s] | bioavailability ([3]; at 2.3 to […]) [%] | Structure (SMILES) | also measured
1 | 1.1 | < 2 | 6.4 |  | Nc1ncnc2c1C(=O)N(c1ccc(-c3ccc(CN4CC[C@H](O)C4=O)cc3Cl)cc1)CCO2 | 
2 | 3.8 | 9.3 |  | 150 | Nc1ncnc2c1C(=O)N(c1ccc(-c3cccc(Cl)c3Cl)cc1)CCO2 | clearance (in vivo): 24 mL/min/kg
3 | 1.3 | 35 |  |  | NC(=O)Cc1ccc(-c2ccc(N3CCOc4ncnc(N)c4C3=O)cc2)c(Cl)c1 | 
4 | 3.7 | 9.5 | 16.2 | 110 | Nc1ncnc2c1C(=O)N(c1ccc(-c3cc(Cl)ccc3Cl)cc1)CCO2 | clearance (in vivo): 12 mL/min/kg
5 | -0.4 | 14 |  |  | Nc1ncnc2c1C(=O)N(c1ccc(-c3ccc(CC(=O)O)cc3Cl)cc1)CCO2 | 
6 |  | 18.4 |  |  | Nc1ncnc2c1C(=O)N(c1ccc(-c3ccc(Cn4cccnc4=O)cc3Cl)cc1)CCO2 | 
7 | 0.1 | 4.9 | 0.2 |  | CN(Cc1ccc(-c2ccc(N3CCOc4ncnc(N)c4C3=O)cc2)c(Cl)c1)C(=O)CN | 
8 |  | < 2.8 |  | 61 | CS(=O)(=O)Cc1ccc(-c2ccc(N3CCOc4ncnc(N)c4C3=O)cc2)c(Cl)c1 | clearance (in vivo): 5 mL/min/kg
9 | -1 | < 2 | 0.2 |  | CN(Cc1ccc(-c2ccc(N3CCOc4ncnc(N)c4C3=O)cc2)c(Cl)c1)C(=O)CCCN | 
10 |  | < 2 | > 10 | 93 | Nc1ncnc2c1C(=O)N(c1ccc(-c3ccccc3F)cc1)CCO2 | Vdss (Mus musculus): 0.6 L/kg; half-life [4]: 198 min; clearance (in vivo): 7 mL/min/kg; bioavailability [5]: > 100%; half-life [6]: 72 min; Vdss (Canis familiaris): 2.4 L/kg; bioavailability [7]: 93%; Vd [8]: 1.9 L/kg; clearance [9]: 7.3 mL/min/kg; half-life [10]: 210 min; half-life [11]: 186 min; bioavailability [12]: 76%; half-life [13]: 402 min
11 | 0.9 |  |  | 3 | Nc1ncnc2c1C(=O)N(c1ccc(-c3ccc(CC(=O)N4CCNC(=O)C4)cc3Cl)cc1)CCO2 | 
12 | 3.4 |  | > 10 |  | Cc1cccc(Cl)c1-c1ccc(N2CCOc3ncnc(N)c3C2=O)cc1 | 
13 | 2.9 |  | > 10 |  | Nc1ncnc2c1C(=O)N(c1ccc(-c3c(F)cccc3F)c(F)c1)CCO2 | 
14 | 2.5 | 4.6 | 54.8 |  | N#Cc1cccc(-c2ccc(N3CCOc4ncnc(N)c4C3=O)cc2)c1Cl | 
15 | 1.8 |  | 14.5 | 100 | CC(=O)NCc1ccc(-c2ccc(N3CCOc4ncnc(N)c4C3=O)cc2)c(Cl)c1 | 
16 | 2.4 |  | > 10 |  | Nc1ncnc2c1C(=O)N(c1ccc(-c3ccccc3)cc1)CCO2 | 
17 |  | 5.9 |  | 28 | CN(Cc1ccc(-c2ccc(N3CCOc4ncnc(N)c4C3=O)cc2)c(Cl)c1)S(C)(=O)=O | clearance (in vivo): 5 mL/min/kg

Row | logD (physchem) | hepatocyte CLint (in vitro [1]) [µL/min/1e6 cells] | Papp A→B (in vitro [2]) [×10⁻⁶ cm/s] | bioavailability ([3]; at 2.3 to […]) [%] | Structure (SMILES) | also measured
18 | > 3.9 |  |  |  | Nc1ncnc2c1C(=O)N(c1ccc(-c3ccc(Cl)cc3Cl)cc1)CCO2 | bioavailability [3]: 87%
19 | 2.5 |  | > 10 |  | Nc1ncnc2c1C(=O)N(c1ccc(-c3c(F)cccc3F)cc1)CCO2 | 
20 | 2.9 | 11.1 | 32.5 | 65 | Nc1ncnc2c1C(=O)N(c1ccc(-c3ccccc3Cl)cc1)CCO2 | clearance (in vivo): 21 mL/min/kg
21 | 1.1 | < 3.1 |  |  | Nc1ncnc2c1C(=O)N(c1ccc(-c3ccc(CC(=O)N4CC(O)C4)cc3Cl)cc1)CCO2 | 
22 | 1.8 |  | 11.3 | 21 | CS(=O)(=O)NCc1ccc(-c2ccc(N3CCOc4ncnc(N)c4C3=O)cc2)c(Cl)c1 | 
23 | 2.1 |  | > 10 |  | N#Cc1cccc(Cl)c1-c1ccc(N2CCOc3ncnc(N)c3C2=O)cc1 | 
24 | 3.2 |  |  | 150 | Nc1ncnc2c1C(=O)N(c1ccc(-c3ccc(C(F)F)cc3Cl)cc1)CCO2 | 
25 | 1.1 |  | 1.1 | 15 | Nc1ncnc2c1C(=O)N(c1ccc(-c3ccc(CC(=O)N4CC[C@@H](O)C4)cc3Cl)cc1)CCO2 | 
26 | 1.9 | 11 | 19.7 |  | CC(=O)N(C)Cc1ccc(-c2ccc(N3CCOc4ncnc(N)c4C3=O)cc2)c(Cl)c1 | 
27 | -0.5 | < 2 | 0.3 |  | CN(Cc1ccc(-c2ccc(N3CCOc4ncnc(N)c4C3=O)cc2)c(Cl)c1)C(=O)CCN | 
28 | 1.5 |  | > 10 | 68 | Nc1ncnc2c1C(=O)N(c1ccc(-c3ncccc3Cl)cc1)CCO2 | 
29 |  |  | 16.8 |  | Nc1ncnc2c1C(=O)N(c1ccc(-c3ccc(CO)cc3Cl)cc1)CCO2 | 
30 | 2.4 | 4.8 | 48.2 |  | N#Cc1ccc(-c2ccc(N3CCOc4ncnc(N)c4C3=O)cc2)c(Cl)c1 | 
31 | 3.5 |  | 16.6 | 14 | Cc1ccc(-c2ccc(N3CCOc4ncnc(N)c4C3=O)cc2)c(Cl)c1 | 
32 | 2.7 |  | > 10 |  | Cc1ccccc1-c1ccc(N2CCOc3ncnc(N)c3C2=O)cc1 | 
33 | 3 |  | > 10 | 14 | Nc1ncnc2c1C(=O)N(c1ccc(-c3ccccc3Cl)c(F)c1)CCO2 | clearance (in vivo): 18 mL/min/kg
